# US20260091147A1, “METHOD FOR DETECTING INNATE IMMUNE ACTION IN VIVO USING GPR84-PET” (The Board of Trustees of the Leland Standford Junior …, priority 2023, published 2026)
# Columns and labels:
# GPR84 [1] = target: T1, GPR84 (Mus musculus, UniProt Q8CIM5); assay: Ex vivo gamma counting of CNS tissues in EAE vs naive mice
# T1 construct: tissue Jackson Laboratories; host or cells: female C57BL/6J mice (LPS, saline, EAE or naive): brain, spinal cord and peripheral organs
# Method: After the PET/CT scan the mice were perfused under 3% isoflurane and organs of interest were dissected out, weighed, and placed on a Hidex gamma counter to quantify the percent of injected dose per gram of tissue. After gamma counting, CNS tissues were frozen and sectioned on a cryotome at 40 μm and placed on a phosphor storage screen overnight. The images were read using a Typhoon imager 18 h after the screen was exposed to the tissues. Additional mice were also injected off of the PET/CT scanner and perfused at 60-min post-injection to increase the N for the ex vivo gamma counting and autoradiography data.
# Radiosynthesis of ^18F-MGX-110S was achieved by copper-mediated fluorination of a Bpin precursor in a mixture of dimethylacetamide at 130° C. for 20 min. C57BL/6 mice were induced with EAE using myelin oligodendrite glycoprotein (MOG35-55) emulsified in complete Freund's adjuvant and weighed/scored daily for disease severity. Expression of Gpr84 and Tspo was assessed in EAE (n=10-16 mice of low and high disease severities) versus naïve mice (n=5) using quantitative polymerase chain reaction (qPCR) of CNS tissues. In vivo kinetics, spatial distribution, and BBB permeability of ^18F-MGX-110S was assessed via 60-min dynamic PET/CT imaging of naïve C57BL/6 (n=3) and high scoring EAE mice (n=3). […]
# GPR84 [2] = target: T1, GPR84; assay: Dynamic PET/CT in EAE vs naive mice, spinal cord time activity curves; assay type: in vivo
# Method: 10-week old female C57BL/6 mice were induced with EAE using kits from Hooke Laboratories Inc. (cat #EK2110; Lawrence, MA). After anesthetizing mice with isoflurane gas (2.0-3.0% for induction and 1.5-2.5% for maintenance), they were inoculated with myelin oligodendrocyte glycoprotein (MOG35-55) in complete Freund's adjuvant (CFA) (0.2 mL per mouse, S.C.), followed by two pertussis toxin (PTX) injections (110 ng per injection, I.P., 1 and 24 h post-MOG injection). All mice were weighed and scored daily in the morning from day 8 onwards according to standard EAE scoring systems: 0, no paralysis; 1, loss of tail tone; 2, hind limb weakness or paresis; 3, hind limb paralysis; 4, complete hind leg and partial front leg paralysis. EAE mice were given supplemental food and fluids as necessary.
# On days 15-16 after EAE induction, mice were catheterized and placed on the 4-mouse scanning bed of the Sofie GNEXT PET/CT scanner. Mice were injected with a radiotracer bolus of 130-170 μCi of ^18F-MGX-110S for a 60-min dynamic PET scan followed by CT. Scans were reconstructed from list mode into 19 frames (4×15 s, 4×60 s, 11×300 s) using OSEM3D reconstruction with 3 iterations and 24 subsets. Brain analysis was performed using a semi-automated brain atlas on VivoQuant software (2020 version) and spinal cords were manually drawn as previously described (JoVE).
# Radiosynthesis of ^18F-MGX-110S was achieved by copper-mediated fluorination of a Bpin precursor in a mixture of dimethylacetamide at 130° C. for 20 min. C57BL/6 mice were induced with EAE using myelin oligodendrite glycoprotein (MOG35-55) emulsified in complete Freund's adjuvant and weighed/scored daily for disease severity. Expression of Gpr84 and Tspo was assessed in EAE (n=10-16 mice of low and high disease severities) versus naïve mice (n=5) using quantitative polymerase chain reaction (qPCR) of CNS tissues. In vivo kinetics, spatial distribution, and BBB permeability of ^18F-MGX-110S was assessed via 60-min dynamic PET/CT imaging of naïve C57BL/6 (n=3) and high scoring EAE mice (n=3). Ex vivo gamma counting of tissues of interest was conducted using naïve (n=8) and EAE (n=8) mice 60-min post-tracer injection. Lastly, EAE (n=3) and naïve (n=4) mice were injected with ^18F-GE180 and dissected 60 min later for gamma counting as a comparison.
# [3] = tested on: GPR84-positive immune cells; assay: PET/CT in B16F1 melanoma brain metastasis model, with or without anti-PD-1 and anti-CTLA-4; assay type: in vivo, mouse; conditions: anti-PD-1 and anti-CTLA-4, day 9
# Method: Six-to-eight-week-old female C57BL/6 mice were injected subcutaneously with 0.25×10^6 B16F1 melanoma cells on the right flank to generate extracranial tumors. After two days of extracranial tumor inoculation, 5×10^3 B16F1 melanoma cells were stereotactically injected into the striatum. Five days after intracranial tumor inoculation, mice were randomized into treatment (n=4) vs no treatment (n=4) groups based on the intracranial bioluminescence signals and monitored daily starting on day 5 for extracranial tumor volume changes. On days 5, 7 and 9 post-intracranial tumor inoculation, mice in the treatment group were treated with anti-PD-1 and anti-CTLA-4 (200 μg via intraperitoneal injection). T2-weighted MRI (Bruker) with a CryoProbe was performed on day 9 after intracranial tumor inoculation to identify brain tumor region of interest. Following MRI, mice underwent PET/CT imaging on the GNEXT PET/CT (Sofie). 100-125 μCi of [^18F]MGX-110S was injected for a 10-min static PET scan followed by CT. Mice were then perfused and organs of interest were dissected and analyzed via gamma counting. Region of interest analysis of the PET images was performed using a 3D volume drawing mode around the intracranial and extracranial tumors (Inveon Research Workspace).
# [4] = healthy rhesus macaque, n=1
# Method: The animal was anesthetized in the home cage with Telazol and transported to the PET facility, where the subject was intubated for mechanical ventilation; anesthesia was continued with isoflurane and maintained throughout the duration of the PET scan. A venous catheter was inserted into one hind limb and the monkey was placed on the PET gantry with its head secured to prevent motion artifacts. […] Emission data were collected beginning with the injection and continued for 60 minutes. Vitals (HR, SPO2, EtCO2 and respiratory rate) were collected for the entire duration of the scan. Data were corrected for attenuation and scatter and reconstructed using the three-dimensional-maximum a priori method (3D MAP algorithm). A ROI was defined for the whole brain on multiple planes by using a summed image. The volumetric ROI was then applied to a full dynamic data set to generate a TAC.
# T1 sequence (Q8CIM5 whole entry): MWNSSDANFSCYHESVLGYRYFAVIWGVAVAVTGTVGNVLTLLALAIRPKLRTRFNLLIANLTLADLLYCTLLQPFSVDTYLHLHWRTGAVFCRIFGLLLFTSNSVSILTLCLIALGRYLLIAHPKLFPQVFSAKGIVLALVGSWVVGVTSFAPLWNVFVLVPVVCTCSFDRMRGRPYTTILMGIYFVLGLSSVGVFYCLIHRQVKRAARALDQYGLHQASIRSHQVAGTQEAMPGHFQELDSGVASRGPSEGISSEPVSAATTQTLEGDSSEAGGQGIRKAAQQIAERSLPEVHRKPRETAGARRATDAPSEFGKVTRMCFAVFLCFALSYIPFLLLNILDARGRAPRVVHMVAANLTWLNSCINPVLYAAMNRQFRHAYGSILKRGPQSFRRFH
SMILES,signal-to-background ratio (EAE-to-naive) in lumbar spinal cord relative to 18F-GE180 (GPR84 [1]; 60 min post injection) [fold],"tracer binding in cervical/thoracic and lumbar spinal cord, EAE vs naive (GPR84 [1]; both p<0.01)","cervical/thoracic spinal cord signal at 60 min, EAE mice (GPR84 [2]; high scoring EAE, n=3) [% ID/g]","lumbar spinal cord signal at 60 min, EAE mice (GPR84 [2]; high scoring EAE, n=3, p=0.0206) [% ID/g]","cervical/thoracic spinal cord signal at 60 min, naive mice (GPR84 [2]; n=3) [% ID/g]","lumbar spinal cord signal at 60 min, naive mice (GPR84 [2]; n=3) [% ID/g]","PET signal in intracranial tumor, untreated vs immunotherapy-treated mouse [3]",peak whole-brain uptake at 4 minutes post injection [4] [SUV],whole-brain level after washout over 60 min [4] [SUV]
O=c1nc(OC[C@@H]2COCCO2)cc2n1CCc1cc([18F])ccc1-2 [^18F-MGX-110S],2.5,significantly elevated tracer binding,4.54±1.16,7.08±1.05,3.21±0.42,4.13±0.79,significantly elevated signal,,
Cc1cc2c(cc1O[11CH3])CCn1c-2c(C)c(OC[C@@H]2COCCO2)cc1=O [[^11C]GLPG38],,,,,,,,3.3,1.47
